Entries after “also recorded” stand apart in the source; their conditions may differ.
Key:
[1] = system: TNF-α production in LPS stimulated THP-1 cells; experiment: Inhibition of TNF-α production in LPS stimulated THP-1 cells (ELISA); format: cell-based, human; conditions: screen 2, mean relative secretion, basal = 0%; for TNF-α at 4 μM peptide / TNF-α at 10 μM peptide: stimulated = 100%; for TNF-α at 40 μM peptide: LPS-stimulated level without peptide = 100%
Method: (§1) After 6 hours of incubation at +37° C., 5% CO2 and in a humid atmosphere, the cell supernatants were collected, centrifuged and kept frozen in −20° C. until analyzed for TNF-α content by ELISA (R&D Systems, Minneapolis, Minn., USA). The results are presented as mean relative secretion (%), with stimulated TNF-α level without peptide added set to 100% and basal secretion set to 0% (Table 2).
as §1, with “incubation,” for “incubation at +37° C., 5% CO2 and in a humid atmosphere,”, “centrifuged,” for “centrifuged”, “5).” for “2).”

S. aureus = experiment: Antimicrobial effect in infected wounds, ex vivo model on pig skin; conditions: S. aureus in PBS/serum (50/50), peptide in H2O 0.1, 0.5 and 2 mg/ml, single administration, 4 hours
Description: FIG. 5. Dose response effect of, peptide 232 (SEQ ID NO 78)(A) and peptide 220 (SEQ ID NO 67)(B) on bacterial colonization of infected wounds in pig skin. […] Results are presented as relative bacterial survival (%) compared to control group±SEM (n=10 wounds). Statistical significance was estimated by Student's t test. *=p<0.05, **=p<0.01, ***=p<0.001.
The antimicrobial effects of the peptide 232 (SEQ ID NO: 78), and the peptide 220 (SEQ ID NO:67) were investigated in an ex vivo model on pig skin. The wounds were inoculated with S. aureus in the presence of PBS/Serum 50/50. Two hours after inoculation the wounds were treated with a single administration of the peptide or placebo (H2O). Four hours after the treatment bacteria were harvested and viable counts of each wound were determined.

[2] = system: S. epidermidis (ATCC12228); experiment: MMC99 assay, S. epidermidis; format: cell-based
Method: (§2) The antimicrobial effects of the peptides 232 (SEQ ID NO: 78), and 220 (SEQ ID NO:67) were analysed by MMC99 (minimal microbicidal concentration) assay against S. aureus (CCUG 1800), MRSA (CCUG 41879), P. aeruginosa (ATCC 15442), E. coli (CCUG 31246), S. pyogenes (CCUG 4207), P. acnes (CCUG 1794T), S. epidermidis (ATCC12228), K. pneumoniae (ATCC 13883), A. baumannii (ATCC 19606), and C. albicans (ATCC 64549). The peptides were purchased from Biopeptide Company (San Diego, Calif., USA) and Bachem AG (Bubendorf, Switzerland) and results are presented in Table 8A and 8B respectively.
(§3) Peptides were serially diluted in two different assay medium, 1% BHI medium (brain-heart infusion medium) or 50% heat inactivated simulated wound fluid (SWF), and thereafter incubated with the microorganisms for 2 hours. Drops of the suspension were placed on blood agar plates. The MMC99 values, i.e. the lowest peptide concentration needed to achieve a 99% reduction of viable microorganisms, were recorded. As presented in Table 8, all the peptides have the ability to kill microorganisms frequently appearing in infections.

[3] = system: K. pneumoniae (ATCC 13883); experiment: MMC99 assay, K. pneumoniae; format: cell-based
Method: as §2, §3

[4] = system: A. baumannii (ATCC 19606); experiment: MMC99 assay, A. baumannii; format: cell-based
Method: as §2, §3

C. albicans (ATCC 64549) = experiment: MMC99 assay, C. albicans; format: cell-based
Method: as §2, §3

Which “TNF-α at 4 μM peptide” value [1] does the source give for QSLARKLFQWLRNLRKVA [Peptide 220] here?
The value was 70.8%.

What about the “TNF-α at 10 μM peptide” value [1] of the same sequence?
Its value is 37.0%.

What about the “TNF-α at 40 μM peptide” value [1] of the same sequence?
The value was 11.6%.

And the “bacterial colonization of infected wounds in pig skin (bacterial counts vs control)” value (S. aureus)?
Its value is “significant reduction in bacterial counts; also recorded: highly effective anti-infectious agents when applied locally”.

With RRLWRRWMRKVL [Peptide 232] as the sequence, how does the “TNF-α at 4 μM peptide” value [1] read?
Its value is 96.9%.

What about the “TNF-α at 10 μM peptide” value [1] of the same sequence?
Its value is 66.6%.

And the “TNF-α at 40 μM peptide” value [1]?
The value was 33.2%.

And the MMC99 ([2]; 1% BHI)?
The MMC99 was 3 µg/mL.

And the MMC99 ([2]; 50% SWF)?
The MMC99 was 50 µg/mL.

And the MMC99 ([3]; 1% BHI)?
Its MMC99 is 6 µg/mL.

And the MMC99 ([3]; 50% SWF)?
The MMC99 was >200 µg/mL.

What about the MMC99 ([4]; 1% BHI) of the same sequence?
The MMC99 was 3 µg/mL.

What about the MMC99 ([4]; 50% SWF) of the same sequence?
The MMC99 was 200 µg/mL.

What about the MMC99 (C. albicans (ATCC 64549); 1% BHI) of the same sequence?
The MMC99 was 3 µg/mL.

And the MMC99 (C. albicans (ATCC 64549); 50% SWF)?
The MMC99 was 50 µg/mL.

And the “bacterial colonization of infected wounds in pig skin (bacterial counts vs control)” value (S. aureus)?
Its value is “significant reduction in bacterial counts; also recorded: highly effective anti-infectious agents when applied locally”.

From patent US20140031296A1, “NEW SYNTHETIC PEPTIDES AND THEIR USE” (PERGAMUM AB, priority 2011, published 2014)
